Results on three compounds are retold here after patent publication US20230263809A1, “FOOD SUPPLEMENT FOR ALZHEIMER” (FOLIUM BIOSCIENCES EUROPE B.V., priority 2019, published 2023).

Data set [1] in a line: Side effects on uptake of phytosterols (compared with synthetic LXRα/β activators). Format: in vivo. As to conditions: side effects caused normally by synthetic LXRα/β activators.
The subject of the next data set is neurological behaviours. The experiment in a line: Restoring neurological behaviours on uptake of phytosterols. As to conditions: uptake of the phytosterol. It counts as in vivo.
Another data set deals with cholesterol absorption. As to conditions: by competing with cholesterol absorption; cited from earlier work.
For a further data set, the system named is Amyloid-β deposits. The conditions noted are these: in vivo; cited from earlier work.

For `C=CC(O)(CC[C@@H](C)[C@H]1CC[C@H]2[C@@H]3CC=C4C[C@@H](O)CC[C@]4(C)[C@H]3CC[C@]12C)C(C)C` (stereo partly drawn) [24(S)-Saringosterol], in data set [1], the side effects result is given as “without registering any side effects”. Further, the restore neurological behaviours entry in the data set on neurological behaviours is listed as “help restore neurological behaviours”.
For the compound `C/C=C(\CC[C@@H](C)[C@H]1CC[C@H]2[C@@H]3CC=C4C[C@@H](O)CC[C@]4(C)[C@H]3CC[C@]12C)C(C)C` [Fucosterol], the side effects result in data set [1] was “without registering any side effects”. Further, the cholesterol lowering effect result in the data set on cholesterol absorption is reported as “shows a cholesterol lowering effect”. Moreover, in the data set on neurological behaviours, the restore neurological behaviours result is listed as “help restore neurological behaviours”.
For the compound `CCCCCc1cc(O)c2c(c1)OC(C)(C)[C@@H]1CCC(C)=C[C@@H]21` [THC, Δ^9-tetrahydrocannabidiol], the “removal of the toxic clumps of Amyloid-β deposits in the brain” value in the data set with Amyloid-β deposits was “promote the removal of the toxic clumps of Amyloid-β deposits”.
